Like-named read-outs stand apart in the source and are kept apart here. A value given as a limit tells only on which side of the number the result lay.

Holding throughout (set-up): species or system SD rats
One assay addresses adrenergic α1 receptor. Kind of assay: adrenergic α1 receptor binding test ([3H] Prazosin Binding Test). Conditions: 1 nM [3H] Prazosin, rat cortex, room temperature, 60 minutes. The protocol: The compounds of the present invention were subjected to each of serotonin S2 receptor binding test, dopamine D2 receptor binding test and adrenergic α1 receptor binding test.
The following reagents were used in this test.
These reagents and samples were each dissolved in 10% ethanol before use. Among them, water-insoluble compounds were each dissolved in ethanol and the obtained solution was diluted with distilled water to an ethanol concentration of 10%. Further, Methylsergide maleate was used in a state dissolved in distilled water.
SD rats aged 6 to 8 weeks were used.
SD rats were each slaughtered with a guillotine to extirpate its cerebrum. The cortex and corpus striatum were separated from the cerebrum. The former was used in serotonin S2 receptor binding test and adrenergic α1, receptor binding test, while the latter was used in dopamine D2 receptor binding test.
The cortex was homogenized in a 0.32 M sucrose solution in an amount ten times the wet weight of the cortex by the use of a teflon glass homogenizer and the resulting mixture was centrifuged at 10,000×G for 20 minutes. The obtained sediment was suspended in 50 mM Tris hydrochloride (pH 7.4) in an amount ten times the initial wet weight of the cortex by the use of a histocothrom, and the obtained suspension was centrifuged at 10,000×G for 20 minutes. This operation was repeated twice. The obtained sediment was suspended in 50 mM Tris hydrochloride (pH 7.4) in an amount 20 times the initial wet weight of the cortex by the use of a histocothrom. The suspension thus prepared was used as a receptor fraction. This receptor fraction was stored at -80° C. until use.
Each IC50 value was calculated by the probit method and each Ki value was determined by the following formula: [formula]
In the above formula, C represents the concentration of radioligand, and Kd represents the affinity of radioligand for the receptor as determined by the Scatchard analysis.
6. [^3 H] Prazosin Binding Test
This test was conducted in the same manner as that of the binding test of [^3 H] Ketanserin except that the receptor fraction prepared from the cortex was molten and suspended with a histocothrom, and the obtained suspension was incubated together with 1 nM-[^3 H] Prazosin at room temperature for 60 minutes and that the binding detected in the presence of 10 μl of Phentolamine was regarded as nonspecific binding.

The next assay addresses T1, dopamine D2 receptor (Rattus norvegicus, UniProt P61169).
T1 construct: the receptor fraction prepared from the corpus striatum was molten and suspended; from tissue; host or cells: corpus striatum of SD rats (membrane fraction)
As to the kind of experiment: dopamine D2 receptor binding test ([3H] Spiperone Binding Test). Conditions: 1 nM [3H] Spiperone, rat corpus striatum, room temperature, 60 minutes. The procedure, abridged:
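Rat (SD, 6–8 weeks) corpus striatum membranes in 50 mM Krebs-Tris pH 7.4 were incubated with 1 nM [3H]spiperone at room temperature for 60 minutes, with nonspecific binding defined by excess spiperone. IC50 came from probit analysis; Ki was derived using radioligand concentration and Scatchard Kd.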

A further assay deals with T2, serotonin S2 receptor (Rattus norvegicus, UniProt P14842).
T2 construct: The receptor fraction prepared from the cortex was molten and suspended; from tissue; host or cells: cerebral cortex of SD rats (membrane fraction)
T2 sequence (P14842 whole entry): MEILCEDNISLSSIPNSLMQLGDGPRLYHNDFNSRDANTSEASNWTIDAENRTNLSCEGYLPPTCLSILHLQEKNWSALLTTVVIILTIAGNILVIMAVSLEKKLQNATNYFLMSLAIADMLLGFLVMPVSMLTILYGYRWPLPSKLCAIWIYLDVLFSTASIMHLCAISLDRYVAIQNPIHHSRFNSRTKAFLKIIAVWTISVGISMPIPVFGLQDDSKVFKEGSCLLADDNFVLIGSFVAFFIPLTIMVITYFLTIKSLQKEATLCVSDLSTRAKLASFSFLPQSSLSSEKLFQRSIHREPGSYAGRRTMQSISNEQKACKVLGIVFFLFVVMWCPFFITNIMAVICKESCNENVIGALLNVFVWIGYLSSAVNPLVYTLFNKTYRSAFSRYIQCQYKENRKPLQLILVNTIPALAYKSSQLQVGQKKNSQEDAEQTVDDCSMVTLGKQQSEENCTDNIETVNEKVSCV
Kind of assay: serotonin S2 receptor binding test ([3H] Ketanserin Binding Test). The settings on record: 1 nM [3H] Ketanserin, rat cortex, 37° C., 15 minutes. The procedure, abridged:
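Rat (SD, 6–8 weeks) cortical membranes in 50 mM Tris-HCl pH 7.4 were incubated with 1 nM [3H]ketanserin for 15 min at 37 °C, then filtered and counted. Nonspecific binding was defined with methysergide. IC50 was obtained by probit analysis and converted to Ki using the Scatchard-derived Kd.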

[1] abbreviates: read-out: Ki value, dopamine D2 receptor.

T1 sequence (P61169 whole entry): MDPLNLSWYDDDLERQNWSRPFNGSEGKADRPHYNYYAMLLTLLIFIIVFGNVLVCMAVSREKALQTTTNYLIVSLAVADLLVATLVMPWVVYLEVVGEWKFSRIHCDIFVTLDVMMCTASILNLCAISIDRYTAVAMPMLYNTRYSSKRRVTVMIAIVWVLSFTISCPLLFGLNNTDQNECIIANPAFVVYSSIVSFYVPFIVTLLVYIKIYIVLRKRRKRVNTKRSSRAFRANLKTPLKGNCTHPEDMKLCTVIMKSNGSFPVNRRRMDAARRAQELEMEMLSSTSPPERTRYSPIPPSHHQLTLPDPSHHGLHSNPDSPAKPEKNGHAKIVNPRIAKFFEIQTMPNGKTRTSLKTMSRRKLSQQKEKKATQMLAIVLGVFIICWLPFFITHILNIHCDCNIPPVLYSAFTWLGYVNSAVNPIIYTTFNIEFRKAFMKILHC

As to `CCCc1cc(N2CCN(CCF)CC2)cc(-c2ccc(F)cc2)c1OC` [Example 72, 1-(2-Fluoroethyl)-4-[3-(4-fluorophenyl)-4-methoxy-5-propyl]phenylpiperazine], the inhibition constant Ki (in general, a dissociation constant, usually derived from enzyme kinetics or from competition with a known ligand) at adrenergic α1 receptor is 270 nM; on dopamine D2 receptor (Ki value, dopamine D2 receptor), 50.3 nM; on serotonin S2 receptor, 108 nM.

Turning to `CCCc1cc(N2CCN(CC)CC2)cc(-c2ccc(OC)cc2)c1OC` [Example 73, 1-Ethyl-4-[3-(4-methoxphenyl)-4-methoxy-5-propyl]phenylpiperazine], the Ki worked out at 332 nM on adrenergic α1 receptor, 577 nM on dopamine D2 receptor (setting [1]) and 635 nM on serotonin S2 receptor.

`CCN1CCN(c2cc(C(=O)OC)c(OC)c(-c3ccccc3)c2)CC1` [Example 74, 1-Ethyl-4-(3-phenyl-4-methoxy-5-methoxycarbonyl)phenylpiperazine]: the Ki at adrenergic α1 receptor is > 1000 nM; at dopamine D2 receptor (setting [1]) it was > 1000 nM; on serotonin S2 receptor, 374 nM.

With `CCN1CCN(c2cc(CC(C)O)c(OC)c(-c3ccccc3)c2)CC1` (stereo not drawn) [Example 75, 1-Ethyl-4-[3-phenyl-4-methoxy-5-(2-hydroxypropyl)]phenylpiperazine], the inhibitory constant (Ki) at adrenergic α1 receptor was > 1000 nM; on dopamine D2 receptor (setting [1]) it was > 1000 nM; at serotonin S2 receptor, 486 nM.

As to `CCN1CCN(c2cc(CCF)c(OC)c(-c3ccccc3)c2)CC1` [Example 76, 1-Ethyl-4-[3-phenyl-4-methoxy-5-(2-fluoroetheyl)]phenylpiperazine], the inhibition constant (Ki) at adrenergic α1 receptor amounted to 112 nM; at dopamine D2 receptor (setting [1]) it was 50.1 nM; on serotonin S2 receptor, 145 nM.

Regarding `CCN1CCN(c2cc(CCCF)c(OC)c(-c3ccccc3)c2)CC1` [Example 77, 1-Ethyl-4-[3-phenyl-4-methoxy-5-(3-fluoropropyl)]phenylpiperazine], the Ki came out at 182 nM on adrenergic α1 receptor, 40 nM on dopamine D2 receptor (setting [1]) and 24.3 nM at serotonin S2 receptor.

Take `CCN1CCN(c2cc(-c3ccc(F)cc3)c(OC)c(C(C)C)c2)CC1` [Example 78, 1Ethyl-4-[3-(4-fluorophenyl)-4-methoxy-5-isopropyl]phenylpiperazine]: the results for the Ki on adrenergic α1 receptor, at dopamine D2 receptor (setting [1]) and at serotonin S2 receptor were 74.8 nM, 4.22 nM and 33.2 nM, respectively.

For the compound `CCN1CCN(c2cc(-c3ccc(F)cc3)c(OC)cc2C(C)C)CC1` [Example 79], the results for the inhibition constant (Ki) at adrenergic α1 receptor, at dopamine D2 receptor (setting [1]) and on serotonin S2 receptor were 69.8 nM, 28.5 nM and 192 nM, respectively.

For the compound `CCN1CCN(c2cc(-c3ccccc3)c(OC)c(C(C)(C)O)c2)CC1` [Example 80], the Ki on adrenergic α1 receptor is > 1000 nM; at dopamine D2 receptor (setting [1]), 810 nM; on serotonin S2 receptor, 177 nM.

In the case of `CCCCOC(CC)c1cc(N2CCN(CC)CC2)cc(-c2ccccc2)c1OC` (stereo not drawn) [Example 81], the Ki at adrenergic α1 receptor was > 1000 nM; at dopamine D2 receptor (setting [1]), 38.3 nM; on serotonin S2 receptor, 241 nM.

Take `CCC(=O)c1cc(N2CCN(CC)CC2)cc(-c2ccccc2)c1OC` [Example 82, 1-Ethyl-4-(3-phenyl-4methoxy-5-propionyl)phenylpiperazine]: the inhibitory constant (Ki) at adrenergic α1 receptor is 723 nM; at dopamine D2 receptor (setting [1]), 39.1 nM; at serotonin S2 receptor, 10.7 nM.

As to `CCC(O)c1cc(N2CCN(CC)CC2)cc(-c2ccccc2)c1OC` (stereo not drawn) [Example 83, 1-Ethyl-4-[3-phenyl-4methoxy-5-(1-hydroxypropyl)]phenylpiperazine], the inhibition constant (Ki) on adrenergic α1 receptor is > 1000 nM; on dopamine D2 receptor (setting [1]) it was 485 nM; on serotonin S2 receptor, 84.5 nM.

With `CCCc1cc(N2CCN(CC)CC2)cc(-c2ccccc2F)c1OC` [Example 84, 1-Ethyl-4-[3-(2-fluorophenyl)-4-methoxy-5-propyl]phenylpiperazine], the results for the Ki at adrenergic α1 receptor, on dopamine D2 receptor (setting [1]) and on serotonin S2 receptor were > 1000 nM, 44.6 nM and 66.2 nM, respectively.

In the case of `CCCc1cc(N2CCN(CC)CC2)cc(-c2ccc(C(F)(F)F)cc2)c1OC` [Example 85, 1-Ethyl-4-[3-(4-trifluoromethylphenyl)-4-methoxy-5-propyl]phenylpiperazine], the Ki at adrenergic α1 receptor, at dopamine D2 receptor (setting [1]) and at serotonin S2 receptor was > 1000 nM throughout.

As for `CCN1CCN(c2cc(-c3ccccc3)c(OC)c(C(C)(C)F)c2)CC1` [Example 86, 1-Ethyl-4-[3-phenyl-4-methoxy-5-(1-fluoroisopropyl)]phenylpiperazine], the inhibition constant Ki was > 1000 nM at adrenergic α1 receptor, 10.5 nM on dopamine D2 receptor (setting [1]) and 29.4 nM on serotonin S2 receptor.

As to `CCN1CCN(c2cc(-c3ccccc3)c(OC)c(C(C)CO)c2)CC1` (stereo not drawn) [Example 87], the inhibitory constant (Ki) at adrenergic α1 receptor was > 1000 nM; on dopamine D2 receptor (setting [1]), 135 nM; at serotonin S2 receptor, 283 nM.

In the case of `CCC(F)c1cc(N2CCN(CC)CC2)cc(-c2ccccc2)c1OC` (stereo not drawn) [Example 88, 1-Ethyl-4-[3-phenyl-4-methoxy-5-(1-fluoropropyl)]phenylpiperazine], the inhibition constant (Ki) came out at 493 nM on adrenergic α1 receptor, 7.35 nM on dopamine D2 receptor (setting [1]) and 8.33 nM at serotonin S2 receptor.

Consider `CCN1CCN(c2cc(C#N)c(OC)c(-c3ccccc3)c2)CC1` [Example 89, 1-Ethyl-4-(3-phenyl-4-methoxy-5-cyano)phenylpiperazine], for which the inhibitory constant (Ki) at adrenergic α1 receptor is > 1000 nM; at dopamine D2 receptor (Ki value, dopamine D2 receptor) it was 44.6 nM; on serotonin S2 receptor it was 310 nM.

For the compound `CCN1CCN(c2cc(-c3ccccc3)c(OC)c(-c3ccco3)c2)CC1` [Example 90], the figures for the inhibition constant Ki on adrenergic α1 receptor, on dopamine D2 receptor (setting [1]) and at serotonin S2 receptor were > 1000 nM, 263 nM and 685 nM, respectively.

As for `CCCc1cc(N2CCN(CC)CC2)cc(-c2ccc(F)cc2F)c1OC` [Example 91, 1-Ethyl-4-[3-(2,4-difluorophenyl)-4-methoxy-5-propyl]phenylpiperazine], the Ki turned out to be 323 nM on adrenergic α1 receptor, 7.34 nM at dopamine D2 receptor (setting [1]) and 37.1 nM on serotonin S2 receptor.

For the compound `CCN1CCN(c2cc(C(=O)Cc3ccccc3)c(OC)c(-c3ccccc3)c2)CC1` [Example 92, 1-Ethyl-4-(3-phenyl-4-methoxy-5-phenylacetyl)phenylpiperazine], the Ki at adrenergic α1 receptor came out at 942 nM; on dopamine D2 receptor (setting [1]), 2.71 nM; at serotonin S2 receptor, 1.14 nM.

As to `CCN1CCN(c2cc(C(=O)Cc3ccc(F)cc3)c(OC)c(-c3ccccc3)c2)CC1` [Example 93, 1-Ethyl-4-[3-phenyl-4-methoxy-5-(4-fluorophenyl)acetyl]phenylpiperazine], the Ki is 719 nM on adrenergic α1 receptor, 28 nM on dopamine D2 receptor (setting [1]) and 1.31 nM at serotonin S2 receptor.

For `CCN1CCN(c2cc(-c3ccccc3)c(OC)c(C(O)Cc3ccccc3)c2)CC1` (stereo not drawn) [Example 94, 1-Etyl-4-[3-phenyl-4-methoxy-5-(1-hydroxyphenethyl)]phenylpiperazine], the Ki at adrenergic α1 receptor worked out at 600 nM; on dopamine D2 receptor (setting [1]), 13.8 nM; on serotonin S2 receptor it was 109 nM.

`CCN1CCN(c2cc(-c3ccccc3)c(OC)c(C3CCCO3)c2)CC1` (stereo not drawn) [Example 95, 1-Ethyl-4-[3-phenyl-4-methoxy-5-(2-tetrahydrofuranyl)]phenylpiperazine]: the results for the Ki at adrenergic α1 receptor, on dopamine D2 receptor (setting [1]) and on serotonin S2 receptor were 279 nM, 104 nM and 40.9 nM, respectively.

On to `CCN1CCN(c2cc(-c3ccccc3)c(OC)c(C(F)Cc3ccccc3)c2)CC1` (stereo not drawn) [Example 96, 1-Ethyl-4-[3-phenyl-4-methoxy-5-(1-fluorophenethyl)]phenylpiperazine], for which the inhibitory constant (Ki) is > 1000 nM at adrenergic α1 receptor, 1.33 nM on dopamine D2 receptor (setting [1]) and 35.3 nM on serotonin S2 receptor.

On to `CCN1CCN(c2cc(-c3ccccc3)c(OC)c(-c3ccccn3)c2)CC1` [Example 97, 1-Ethyl-4-[3-phenyl-4-methoxy-5-(2-pyridyl)]phenylpiperazine], for which the inhibition constant Ki at adrenergic α1 receptor is > 1000 nM; on dopamine D2 receptor (setting [1]) it was > 1000 nM; at serotonin S2 receptor it was 247 nM.

Values taken from patent publication US6281214A, “Biphenyl derivatives” (Eisai Co., Ltd, priority 1994, dated 2001).
